Source: patent US11572384B2, “Unusual substrates of tubulin tyrosine ligase” (FORSCHUNGSVERBUND BERLIN E.V., priority 2016, dated 2023)

Molecular target: T1, TTL (Canis lupus familiaris, UniProt A0A8I3N5B1)
T1 construct: His-Tag (N, cleaved yes); Sumo (N, cleaved yes); made in house; host or cells: E. coli BL21 (DE3)
T1 sequence (A0A8I3N5B1 1-377): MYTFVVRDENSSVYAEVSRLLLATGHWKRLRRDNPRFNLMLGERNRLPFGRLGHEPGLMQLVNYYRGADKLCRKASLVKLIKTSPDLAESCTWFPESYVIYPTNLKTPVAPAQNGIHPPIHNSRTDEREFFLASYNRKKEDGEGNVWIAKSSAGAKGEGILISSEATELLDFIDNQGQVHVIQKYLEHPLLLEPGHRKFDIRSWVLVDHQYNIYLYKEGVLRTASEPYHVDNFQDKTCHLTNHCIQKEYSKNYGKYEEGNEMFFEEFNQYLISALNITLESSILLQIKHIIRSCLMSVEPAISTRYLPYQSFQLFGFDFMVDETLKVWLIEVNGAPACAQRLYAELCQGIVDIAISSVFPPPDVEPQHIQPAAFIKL
Assay: TTL mediated labelling of Tub-tagged proteins with coumarin derivative 7 (SDS-PAGE, in-gel fluorescence)
Assay type: biochemical
Conditions: 1 μM TTL, 37°, 1-6 h
Procedure: TTL (Canis lupus) having NCBI Accession number XP_540180.2 was expressed in E. coli (BL21 DE3) as Sumo-TTL fusion protein with an N-terminal His-Tag. Cells were induced with 0.5 mM IPTG and incubated at 18° C. for 18 h. Lysis was performed in presence of Lysozyme (100 μg/ml), DNAse (25 μg/ml) and PMSF (2 mM) followed by sonification (Branson® Sonifier; 16×8sec, 20% Amplitude) and debris centrifugation at 20.000 g for 30 min. His-Sumo-TTL was purified using a 5 ml His-Trap. For removal of the Sumo-Tag, peak fractions were incubated with SenP2 protease at 4° C. overnight. A second His-Trap run then removed the Sumo fraction. Purified protein was then desalted on a PD10 column (GE Healthcare); buffer was exchanged to MES/K pH 6.8 (20 mM MES, 100 mM KCl, 10 mM MgCl2). Protein aliquots were shock-frozen and stored at −80° C. at 0.8 g/l. Functionalization reactions were performed in a 150 μL solution consisting of 20 mM MES/K pH 7.0, 100 mM KCl, 10 mM MgCl2, 2.5 mM ATP, 1 mM (7), 1 μM TTL, 5 μM ubiquitin and 5 mM DTT. The mixture was incubated at 37° for 1-6 h. Proteins were separated and analysed by SDS-PAGE and a ChemiDoc™ XRS+gel imaging system (Bio-Rad, Hercules, Calif., US). Functionalization reactions were performed in a 150 μL solution consisting of 20 mM MES/K pH 7.0, 100 mM KCl, 10 mM MgCl2, 2.5 mM ATP, 1 mM (7), 1 μM TTL, 5 μM nanobody and 5 mM DTT. The mixture was incubated at 37° for 1-6 h. Proteins were separated and analysed by SDS-PAGE and a ChemiDoc™ XRS+gel imaging system (Bio-Rad, Hercules, Calif., US). Functionalization reactions were performed in a 150 μL solution consisting of 20 mM MES/K pH 7.0, 100 mM KCl, 10 mM MgCl2, 2.5 mM ATP, 1 mM (24), 1 μM TTL, 5 μM nanobody and 5 mM DTT. The mixture was incubated at 37° for 1-6 h. Proteins were separated and analysed by SDS-PAGE and a ChemiDoc™ XRS+gel imaging system (Bio-Rad, Hercules, Calif., US).

TTL mediated functionalization of Tub-tagged Annexin V (SDS-PAGE and in-gel fluorescence (FIG. 10)): successfully functionalized
TTL mediated functionalization of Tub-tagged GBP nanobody (1 mM (7), 5 μM nanobody, SDS-PAGE and in-gel fluorescence (FIG. 9)): successfully functionalized
TTL mediated functionalization of Tub-tagged ubiquitin (1 mM (7), 5 μM ubiquitin, SDS-PAGE and in-gel fluorescence (FIG. 8)): successfully functionalized
SMILES: N[C@@H](Cc1cc(=O)oc2cc(O)ccc12)C(=O)O.O=C(O)C(F)(F)F [compound 7, (1S)-1-Carboxy-2-(7-hydroxy-2-oxo-2H-chromen-4-yl)ethyl ammonium trifluoroacetate]
